One assay addresses T1, PARP-5A (Homo sapiens, UniProt O95271).
T1 sequence (O95271 1-1327): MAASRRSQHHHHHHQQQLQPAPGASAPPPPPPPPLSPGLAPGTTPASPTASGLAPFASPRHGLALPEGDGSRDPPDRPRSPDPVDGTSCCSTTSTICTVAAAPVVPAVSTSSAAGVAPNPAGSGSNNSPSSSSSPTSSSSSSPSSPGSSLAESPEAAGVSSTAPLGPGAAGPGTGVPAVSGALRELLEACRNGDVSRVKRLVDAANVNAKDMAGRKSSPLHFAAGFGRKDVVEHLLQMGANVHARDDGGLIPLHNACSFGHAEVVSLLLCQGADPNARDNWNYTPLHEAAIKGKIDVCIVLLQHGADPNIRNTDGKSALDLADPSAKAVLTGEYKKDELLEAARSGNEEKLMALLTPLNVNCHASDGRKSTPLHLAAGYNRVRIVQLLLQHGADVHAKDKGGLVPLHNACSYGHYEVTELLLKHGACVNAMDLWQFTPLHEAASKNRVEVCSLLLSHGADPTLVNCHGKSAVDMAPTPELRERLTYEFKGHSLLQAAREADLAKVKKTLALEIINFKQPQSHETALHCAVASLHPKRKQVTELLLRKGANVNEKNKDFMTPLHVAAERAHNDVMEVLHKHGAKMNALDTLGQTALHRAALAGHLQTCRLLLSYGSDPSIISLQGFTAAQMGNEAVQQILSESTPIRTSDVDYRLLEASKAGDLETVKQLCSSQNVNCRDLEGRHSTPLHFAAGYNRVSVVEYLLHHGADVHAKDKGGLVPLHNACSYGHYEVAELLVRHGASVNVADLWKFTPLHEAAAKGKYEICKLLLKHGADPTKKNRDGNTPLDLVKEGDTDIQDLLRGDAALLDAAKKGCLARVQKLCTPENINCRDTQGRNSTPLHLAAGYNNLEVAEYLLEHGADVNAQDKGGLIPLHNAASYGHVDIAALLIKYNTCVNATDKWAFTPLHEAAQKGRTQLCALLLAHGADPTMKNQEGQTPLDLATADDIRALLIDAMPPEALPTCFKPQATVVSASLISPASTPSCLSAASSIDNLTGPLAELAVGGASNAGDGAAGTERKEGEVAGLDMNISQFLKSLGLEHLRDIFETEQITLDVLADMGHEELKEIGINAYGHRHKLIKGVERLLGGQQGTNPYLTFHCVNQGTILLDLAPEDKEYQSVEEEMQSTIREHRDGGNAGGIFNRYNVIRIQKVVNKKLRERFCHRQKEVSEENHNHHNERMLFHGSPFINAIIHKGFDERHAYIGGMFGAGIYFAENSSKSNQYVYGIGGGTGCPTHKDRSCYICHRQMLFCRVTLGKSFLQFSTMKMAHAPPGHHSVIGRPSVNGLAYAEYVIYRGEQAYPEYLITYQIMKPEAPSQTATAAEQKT
Briefly: biochemical.

For the next assay, the target named is T2, PARP-12 (Homo sapiens, UniProt Q9H0J9).
T2 sequence (Q9H0J9 1-701): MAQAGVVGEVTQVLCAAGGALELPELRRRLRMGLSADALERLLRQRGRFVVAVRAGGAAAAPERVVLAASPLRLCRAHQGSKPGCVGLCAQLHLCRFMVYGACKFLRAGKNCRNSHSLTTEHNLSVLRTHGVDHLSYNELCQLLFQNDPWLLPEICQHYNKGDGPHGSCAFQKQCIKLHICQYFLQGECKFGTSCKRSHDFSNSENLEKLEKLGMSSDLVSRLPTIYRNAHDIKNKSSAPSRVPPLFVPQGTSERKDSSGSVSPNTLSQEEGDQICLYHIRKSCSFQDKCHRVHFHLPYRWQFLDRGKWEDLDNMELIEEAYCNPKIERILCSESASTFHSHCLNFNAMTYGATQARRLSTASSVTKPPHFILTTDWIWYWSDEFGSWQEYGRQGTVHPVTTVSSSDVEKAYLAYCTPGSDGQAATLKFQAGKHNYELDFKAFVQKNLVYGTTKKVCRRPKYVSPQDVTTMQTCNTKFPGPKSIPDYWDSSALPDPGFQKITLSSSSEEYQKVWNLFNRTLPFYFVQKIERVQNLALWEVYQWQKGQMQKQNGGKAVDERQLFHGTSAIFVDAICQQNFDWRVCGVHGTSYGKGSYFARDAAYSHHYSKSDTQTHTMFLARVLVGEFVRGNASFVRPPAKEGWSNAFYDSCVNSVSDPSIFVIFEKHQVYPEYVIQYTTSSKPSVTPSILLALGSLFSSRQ
Briefly: Assay for enzymatic selectivity for PARP family: PARP-12.

A further assay has as its target T3, PARP-7 (Homo sapiens, UniProt Q7Z3E1).
T3 sequence (Q7Z3E1 1-657): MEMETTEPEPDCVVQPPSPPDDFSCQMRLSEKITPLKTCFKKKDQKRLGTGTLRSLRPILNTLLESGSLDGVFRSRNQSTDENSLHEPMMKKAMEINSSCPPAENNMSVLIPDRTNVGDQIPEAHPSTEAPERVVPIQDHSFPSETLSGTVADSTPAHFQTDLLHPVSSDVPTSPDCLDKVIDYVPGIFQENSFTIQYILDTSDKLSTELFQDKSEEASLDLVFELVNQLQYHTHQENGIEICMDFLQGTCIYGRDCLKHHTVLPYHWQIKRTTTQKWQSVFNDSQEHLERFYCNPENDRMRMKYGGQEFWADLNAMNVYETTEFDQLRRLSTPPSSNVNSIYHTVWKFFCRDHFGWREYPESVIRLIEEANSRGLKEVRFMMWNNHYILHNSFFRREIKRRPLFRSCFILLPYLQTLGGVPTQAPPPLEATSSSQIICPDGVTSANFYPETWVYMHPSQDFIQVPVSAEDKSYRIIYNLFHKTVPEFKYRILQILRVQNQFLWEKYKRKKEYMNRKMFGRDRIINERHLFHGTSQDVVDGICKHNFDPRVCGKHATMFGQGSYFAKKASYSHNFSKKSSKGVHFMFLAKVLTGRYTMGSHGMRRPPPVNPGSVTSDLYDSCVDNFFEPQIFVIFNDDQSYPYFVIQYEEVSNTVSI
Description: Assay for enzymatic selectivity for PARP family: PARP-7.

Assay [1] deals with BRCA-mutated MDA-MB-436 cells. Description: Anti-proliferative activity against cells (CCK8): MDA-MB-436. The assay is classed as cell-based. Particulars: Homo sapiens, 72 h + 96 h culture.

As for `CNC(=O)c1ccc(N2CCN(C[C@H]3CCc4nc(C)c(=O)[nH]c4C3)CC2)c(F)n1` [Example 45, (S)-6-Fluoro-N-methyl-5-(4-((2-methyl-3-oxo-3,4,5,6,7,8-hexahydroquinoxaline-6-yl)methyl)piperazin-1-yl)picolinamide], the figures for the 50% inhibitory concentration (IC50) on PARP-5A, against PARP-12 and on PARP-7 were 1930 nM, 862 nM and 5990 nM, respectively.
Consider `CNC(=O)c1ccc(N2CCN(CC3Cc4[nH]c(=O)c(C)cc4CO3)CC2)c(Cl)n1` (centres unmarked) [Example 74, 6-Chloro-N-methyl-5-(4-((3-methyl-2-oxo-1,5,7,8-tetrahydro-2H-pyrano[4,3-b]pyridin-7-yl)methyl)piperazin-1-yl)picolinamide], for which, in assay [1], the IC50 stood at 7 nM.
For `CCc1cc2c([nH]c1=O)CC(CN1CCN(c3ccc(C(=O)NC)nc3F)CC1)OC2` (centres unmarked) [Compound 2, 5-(4-((3-Ethyl-2-oxo-1,5,7,8-tetrahydro-2H-pyrano[4,3-b]pyridin-7-yl)methyl)piperazin-1-yl)-6-fluoro-N-methyl picolinamide], the IC50 in assay [1] was 0.25 nM; on PARP-5A it was 975 nM; at PARP-12 it was 1990 nM; on PARP-7, > 10000 nM.

The record behind these values is patent EP4768487A1, “FUSED LACTAM RING COMPOUND AND USE THEREOF” (Chengdu Zenitar Biomedical Technology Co., Ltd., priority 2023, dated 2025).
